Measured values reported in paper PMC12473425, “Development and Evaluation of a Modified Fixed-Dose Combination Antihypertensive Tablet Containing S-Amlodipine Besylate: A Bioequivalence and Stability Study” (Pharmaceutics, 2025).
Blank lines part the entries; values can stand above or below the compound they belong to.

How the values were obtained:
[1] = Compatibility study of each API alone or 1:1 (w/w) with excipients under stressed conditions, impurities by HPLC; format: physicochemical; settings: 60 ± 2 °C/80 ± 5% RH
Protocol: We evaluated the compatibility between APIs and excipients, for which each API in […]® tablets was individually mixed in a 1:1 (w/w) ratio with excipients used in the formulation, as well as with commonly used tablet excipients selected based on their functional roles (e.g., diluents, binders, disintegrants, lubricants, etc.). […] The compatibility study was conducted in a temperature and humidity chamber (Sunil Eyela Co., Seongnam, Korea). Samples were withdrawn at predetermined intervals and analyzed for impurities (%). A HPLC system (Agilent Technologies, Inc. CA, USA) was used for the quantitative analysis of impurities. The column used was Symmetry C8 (100 mm × 4.6 mm, 3.5 μm, Waters Corp., Milford, CT, USA). Mobile phase A consisted of a mixture of phosphate buffer (pH 2.8) and acetonitrile at a ratio of […] prepared in a 1000 mL volumetric flask. The buffer was prepared by adjusting a 10% phosphoric acid solution to pH 2.8, filtered through a 0.45 μm membrane filter (Millipore; Billerica, MA, USA), and degassed before use. Mobile phase B consisted of a phosphate buffer (pH 2.8) and acetonitrile at a ratio of 600:1400 (v/v), which was similarly prepared and degassed before use. The mobile phases were delivered at a flow rate of 1.0 mL/min, the column temperature was maintained at 35 °C, and detection was performed at a wavelength of 250 nm.

[2] = parameters: method as in PMID 21966165; settings: low solubility and high permeability; cited from earlier work
[3] = hydrochlorothiazide compatibility, 1w
[4] = hydrochlorothiazide compatibility, 2w
[5] = hydrochlorothiazide compatibility, 4w
[6] = hydrochlorothiazide compatibility, Initial
[7] = S-amlodipine besylate compatibility, 1w
[8] = S-amlodipine besylate compatibility, 2w
[9] = S-amlodipine besylate compatibility, 4w
[10] = olmesartan medoxomil compatibility, 1w
[11] = olmesartan medoxomil compatibility, 2w
[12] = olmesartan medoxomil compatibility, 4w
[13] = olmesartan medoxomil compatibility, Initial

Benzothiadiazine Related Compound A [1, 3]: <LOQ
Total Impurity [1, 3]: 0.08%
Unknown Impurity [1, 3]: 0.08%
Benzothiadiazine Related Compound A [1, 4]: <LOQ
Total Impurity [1, 4]: 0.08%
Unknown Impurity [1, 4]: 0.08%
Benzothiadiazine Related Compound A [1, 5]: <LOQ
Total Impurity [1, 5]: 0.08%
Unknown Impurity [1, 5]: 0.08%
Benzothiadiazine Related Compound A [1, 6]: <LOQ
Total Impurity [1, 6]: 0.10%
Unknown Impurity [1, 6]: 0.10%
Structure (SMILES): NS(=O)(=O)c1cc2c(cc1Cl)NCNS2(=O)=O [Hydrochlorothiazide]

Amlodipine Related Compound A [1, 7]: <LOQ
Total Impurity [1, 7]: <LOQ
Unknown Impurity [1, 7]: <LOQ
Amlodipine Related Compound A [1, 8]: <LOQ
Total Impurity [1, 8]: <LOQ
Unknown Impurity [1, 8]: <LOQ
Amlodipine Related Compound A [1, 9]: 0.06%
Total Impurity [1, 9]: 0.30%
Unknown Impurity [1, 9]: 0.16%
Structure (SMILES): CCOC(=O)C1=C(COCCN)NC(C)=C(C(=O)OC)[C@@H]1c1ccccc1Cl.O.O.O=S(=O)(O)c1ccccc1 [S-amlodipine besylate, S-amlodipine besylate dihydrate]

RNH-8276 [1, 10]: <LOQ
Total Impurity [1, 10]: <LOQ
Unknown Impurity [1, 10]: <LOQ
RNH-8276 [1, 11]: <LOQ
Total Impurity [1, 11]: <LOQ
Unknown Impurity [1, 11]: <LOQ
RNH-8276 [1, 12]: <LOQ
Total Impurity [1, 12]: 0.05%
Unknown Impurity [1, 12]: 0.05%
Total Impurity [1, 13]: <LOQ
Unknown Impurity [1, 13]: <LOQ
Structure (SMILES): CCCc1nc(C(C)(C)O)c(C(=O)OCc2oc(=O)oc2C)n1Cc1ccc(-c2ccccc2-c2nnn[nH]2)cc1 [Olmesartan medoxomil]
Biopharmaceutics Classification System (BCS) class [2]: Class II
